Patent publication US10308644B2, “Heterocyclic compounds as immunomodulators” (Incyte Corporation, priority 2016, dated 2019)

molecular target: PD-1/PD-L1 (Homo sapiens (Human), UniProt Q9NZQ7); assay: PD-1/PD-L1 Homogeneous Time-Resolved Fluorescence (HTRF) Binding Assay; conditions: recombinant human PD-1 (3 nM) and PD-L1 (10 nM), 25° C., PBS pH 7.4
Procedure, shortened: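 Fc-tagged human PD-1 (25-167, 3 nM) and His-tagged PD-L1 (19-238, 10 nM) preincubated with inhibitor 40 min in PBS pH 7.4, 0.05% Tween-20, 0.1% BSA, 1% DMSO, 25 °C. Binding detected by HTRF (Eu anti-IgG/APC anti-His, 665/620 nm) after 60 min; IC50 from percent control activity.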

Chain of PD-1/PD-L1 (Q9NZQ7 19-238): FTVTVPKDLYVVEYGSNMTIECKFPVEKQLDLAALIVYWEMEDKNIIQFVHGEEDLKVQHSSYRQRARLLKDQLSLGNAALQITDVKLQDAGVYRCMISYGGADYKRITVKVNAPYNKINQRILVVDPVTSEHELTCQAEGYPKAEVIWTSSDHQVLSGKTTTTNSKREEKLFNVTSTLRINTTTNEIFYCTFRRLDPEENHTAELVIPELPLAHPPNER

| SMILES | IC50 |
| --- | --- |
| Cc1c(-c2nc3cc(CN4CC[C@@H](C(=O)O)C4)cc(C#N)c3o2)cccc1-c1cccc(-c2nc3c(o2)CN(C(=O)CN2CC[C@@H](O)C2)C3)c1Cl [Example 256, (R)-1-((2-(2′-chloro-3′-(5-(2-((R)-3-hydroxypyrrolidin-1-yl)acetyl)-5,6-dihydro-4H-pyrrolo[3,4-d]oxazol-2-yl)-2-methyl-[1,1′-biphenyl]-3-yl)-7-cyanobenzo[d]oxazol-5-yl)methyl)pyrrolidine-3-carboxylic acid] | ≤ 10 nM |
| Cc1c(Nc2nccc3cc(CN(C)CCO)cnc23)cccc1-c1cccc(-c2nc3cc(CN4CC[C@@](C)(C(=O)O)C4)cc(C#N)c3o2)c1C [Example 190, (R)-1-((7-cyano-2-(3′-(3-(((2-hydroxyethyl)(methyl)amino)methyl)-1,7-naphthyridin-8-ylamino)-2,2′-dimethylbiphenyl-3-yl)benzo[d]oxazol-5-yl)methyl)-3-methylpyrrolidine-3-carboxylic acid] | ≤ 10 nM |
| Cc1c(-c2nc3cc(CN4CC[C@@H](C(=O)O)C4)cc(Cl)c3o2)cccc1-c1cccc(-c2nc3c(s2)CN(CCO)CC3)c1C [Example 61, (R)-1-((7-chloro-2-(3′-(5-(2-hydroxyethyl)-4,5,6,7-tetrahydrothiazolo[5,4-c]pyridin-2-yl)-2,2′-dimethyl-[1,1′-biphenyl]-3-yl)benzo[d]oxazol-5-yl)methyl)pyrrolidine-3-carboxylic acid] | ≤ 10 nM |
| Cc1c(-c2nc3cc(CN4CC5(CC(C(=O)O)C5)C4)cc(C#N)c3o2)cccc1-c1cccc(-c2nc3c(s2)CN(C(=O)CN2CC[C@@H](O)C2)C3)c1C [Example 234, 2-((7-cyano-2-(3′-(5-(2-((R)-3-hydroxypyrrolidin-1-yl)acetyl)-5,6-dihydro-4H-pyrrolo[3,4-d]thiazol-2-yl)-2,2′-dimethylbiphenyl-3-yl)benzo[d]oxazol-5-yl)methyl)-2-azaspiro[3.3]heptane-6-carboxylic acid] | ≤ 10 nM |
| Cc1c(Nc2nccc3cc(CNCC(C)(C)O)cnc23)cccc1-c1cccc(-c2nc3cc(CN4CCCC[C@H]4C(=O)O)cc(Cl)c3o2)c1C [Example 4, (S)-1-((7-chloro-2-(3′-((3-(((2-hydroxy-2-methylpropyl)amino)methyl)-1,7-naphthyridin-8-yl)amino)-2,2′-dimethyl-[1,1′-biphenyl]-3-yl)benzo[d]oxazol-5-yl)methyl)piperidine-2-carboxylic acid] | ≤ 10 nM |
| Cc1c(-c2nc3cc(CN4CC[C@@H](C(=O)O)C4)cc(C#N)c3o2)cccc1-c1cccc(N2CCC(N[C@H]3C[C@@H](O)C3)CC2)c1Cl [Example 47, (R)-1-((2-(2′-chloro-3′-(4-((1s,3s)-3-hydroxycyclobutylamino)piperidin-1-yl)-2-methylbiphenyl-3-yl)-7-cyanobenzo[d]oxazol-5-yl)methyl)pyrrolidine-3-carboxylic acid] | ≤ 10 nM |
| Cc1c(-c2nc3cc(CN4CC[C@@H](C(=O)O)C4)cc(C#N)c3o2)cccc1-c1cccc(NC(=O)c2nc3c(n2C)CCN(C)C3)c1Cl [Example 53, (R)-1-((2-(2′-chloro-3′-(1,5-dimethyl-4,5,6,7-tetrahydro-1H-imidazo[4,5-c]pyridine-2-carboxamido)-2-methylbiphenyl-3-yl)-7-cyanobenzo[d]oxazol-5-yl)methyl)pyrrolidine-3-carboxylic acid] | ≤ 10 nM |
| Cc1c(-c2nc3cc(CN4CC[C@@](C)(C(=O)O)C4)cc(C#N)c3o2)cccc1-c1cccc(NC(=O)c2nc3c(n2C)CCN(C)C3)c1Cl [Example 88, (R)-1-((2-(2′-chloro-3′-(1,5-dimethyl-4,5,6,7-tetrahydro-1H-imidazo[4,5-c]pyridine-2-carboxamido)-2-methylbiphenyl-3-yl)-7-cyanobenzo[d]oxazol-5-yl)methyl)-3-methylpyrrolidine-3-carboxylic acid] | ≤ 10 nM |
